Biological target: T1, human RORγ-LBD (Homo sapiens, UniProt P51449)
T1 construct: made in house; host or cells: E. coli (BL-21)
T1 sequence (P51449 262-518): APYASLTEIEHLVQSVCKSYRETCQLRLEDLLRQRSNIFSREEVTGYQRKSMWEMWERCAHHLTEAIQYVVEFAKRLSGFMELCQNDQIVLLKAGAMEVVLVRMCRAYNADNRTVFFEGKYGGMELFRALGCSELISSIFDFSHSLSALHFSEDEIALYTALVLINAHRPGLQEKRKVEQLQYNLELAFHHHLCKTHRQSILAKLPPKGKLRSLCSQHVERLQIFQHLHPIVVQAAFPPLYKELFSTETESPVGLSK
Test: ROR gamma coactivator peptide recruitment Alphascreen assay (RORγ-LBD binding to GRIP1 coactivator peptide)
Type: biochemical
Settings: 5 nM human RORγ-LBD, 30 nM 7-β-hydroxycholesterol, 50 nM biotinylated GRIP1 coactivator peptide, overnight incubation at room temperature; read-out: result (pIC50, RORγ coactivator peptide recruitment Alphascreen assay) (converted)
Method in brief: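 Alphascreen proximity read-out after overnight room-temperature incubation, yielding pIC50 from 1-in-2 compound series (2.5% DMSO final). Mixture: 50 nM biotin-GRIP1 peptide, 30 nM 7-β-hydroxycholesterol agonist, 5 nM recombinant 6×His:Flag human RORγ-LBD (aa 262-518), 50 mM HEPES pH 7.4.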

Structure (SMILES)	IC50 [nM]
CC1(C)C[C@@H]1N(CC(=O)c1c(Cl)cncc1Cl)C(=O)c1cnn([C@H]2CC[C@H](C(=O)O)CC2)c1C(F)(F)F [Example 656, trans-4-(4-((2-(3,5-dichloro-4-pyridinyl)-2-oxoethyl)((1S)-2,2-dimethylcyclopropyl)carbamoyl)-5-(trifluoromethyl)-1H-pyrazol-1-yl)cyclohexanecarboxylic acid]	186
C[C@@H]1C[C@@H](n2ncc(C(=O)N(CC(=O)c3c(Cl)cccc3Cl)CC3CC(C)(C)C3)c2C(F)(F)F)CC[C@@H]1C(=O)O [Example 663, (1S,2R,4S)-4-(4-((2-(2,6-dichlorophenyl)-2-oxoethyl)((3,3-dimethylcyclobutyl)methyl)carbamoyl)-5-(trifluoromethyl)-1H-pyrazol-1-yl)-2-methylcyclohexanecarboxylic acid]	1.95
CC1(C)CC(N(CC(=O)c2c(Cl)cncc2Cl)C(=O)c2cnn([C@H]3CC[C@](C)(C(=O)O)CC3)c2C(F)(F)F)C1 [Example 587, trans-4-(4-((2-(3,5-dichloro-4-pyridinyl)-2-oxoethyl)(3,3-dimethylcyclobutyl)carbamoyl)-5-(trifluoromethyl)-1H-pyrazol-1-yl)-1-methylcyclohexanecarboxylic acid]	67.6
CC1(CN(CCc2c(Cl)cncc2Cl)C(=O)c2cnn([C@H]3CC[C@H](C(=O)O)CC3)c2C(F)(F)F)CCCCC1 [Example 549, trans-4-(4-((2-(3,5-dichloro-4-pyridinyl)ethyl)((1-methylcyclohexyl)methyl)carbamoyl)-5-(trifluoromethyl)-1H-pyrazol-1-yl)cyclohexanecarboxylic acid]	1.74
Cc1cc(Cl)c(C(=O)CN(CC2CCC3(CC2)CC3)C(=O)c2cnn([C@H]3CC[C@H](C(=O)O)CC3)c2C(F)(F)F)c(Cl)c1 [Example 518, trans-4-(4-((2-(2,6-dichloro-4-methylphenyl)-2-oxoethyl)(spiro[2.5]oct-6-ylmethyl)carbamoyl)-5-(trifluoromethyl)-1H-pyrazol-1-yl)cyclohexanecarboxylic acid]	2.63
C[C@]1(C(=O)O)CC[C@H](n2ncc(C(=O)N(CC(=O)c3c(Cl)cncc3Cl)CC3(F)CC3)c2C(F)(F)F)CC1 [Example 593, trans-4-(4-((2-(3,5-dichloro-4-pyridinyl)-2-oxoethyl)((1-fluorocyclopropyl)methyl)carbamoyl)-5-(trifluoromethyl)-1H-pyrazol-1-yl)-1-methylcyclohexanecarboxylic acid]	33.1
O=C(c1cnn([C@H]2CC[C@H](C(=O)O)CC2)c1C(F)(F)F)N(CCc1c(Cl)cccc1Cl)Cc1ccc(C(F)(F)F)cc1 [Example 526, trans-4-(4-((2-(2,6-dichlorophenyl)ethyl)(4-(trifluoromethyl)benzyl)carbamoyl)-5-(trifluoromethyl)-1H-pyrazol-1-yl)cyclohexanecarboxylic acid]	5.89
C[C@@]1(CN(CC(=O)c2c(Cl)cncc2Cl)C(=O)c2cnn([C@H]3CC[C@](C)(C(=O)O)CC3)c2C(F)(F)F)CCCO1 [Example 660, trans-4-(4-((2-(3,5-dichloro-4-pyridinyl)-2-oxoethyl)(((2S)-2-methyltetrahydro-2-furanyl)methyl)carbamoyl)-5-(trifluoromethyl)-1H-pyrazol-1-yl)-1-methylcyclohexanecarboxylic acid]	25.7
COc1cc(Cl)c(C(=O)CN(C(=O)c2cnn([C@H]3CC[C@H](C(=O)O)CC3)c2C(F)(F)F)C2CCC(C)(C)CC2)c(Cl)c1 [Example 575, trans-4-(4-((2-(2,6-dichloro-4-methoxyphenyl)-2-oxoethyl)(4,4-dimethylcyclohexyl)carbamoyl)-5-(trifluoromethyl)-1H-pyrazol-1-yl)cyclohexanecarboxylic acid]	17
COC1(CN(CC(=O)c2c(Cl)cncc2Cl)C(=O)c2cnn([C@H]3CC[C@@H](C(=O)O)CC3)c2C(F)(F)F)CCCC1 [Example 646, cis-4-(4-((2-(3,5-dichloro-4-pyridinyl)-2-oxoethyl)((1-methoxycyclopentyl)methyl)carbamoyl)-5-(trifluoromethyl)-1H-pyrazol-1-yl)cyclohexanecarboxylic acid]	295
Cc1cc(Cl)c(C(=O)CN(C(=O)c2cnn([C@H]3CC[C@](C)(C(=O)O)CC3)c2C(F)(F)F)[C@H]2C[C@@H]3CC[C@H]2C3)c(Cl)c1 [Example 678, trans-4-(4-((1S,2S,4R)-bicyclo[2.2.1]hept-2-yl(2-(2,6-dichloro-4-methylphenyl)-2-oxoethyl)carbamoyl)-5-(trifluoromethyl)-1H-pyrazol-1-yl)-1-methylcyclohexanecarboxylic acid]	1.07
CCC(C)(C)CN(CC(=O)c1c(F)cccc1Cl)C(=O)c1cnn([C@H]2CC[C@](C)(C(=O)O)CC2)c1C(F)(F)F [Example 657, trans-4-(4-((2-(2-chloro-6-fluorophenyl)-2-oxoethyl)(2,2-dimethylbutyl)carbamoyl)-5-(trifluoromethyl)-1H-pyrazol-1-yl)-1-methylcyclohexanecarboxylic acid]	2.24
Cc1[nH]c2ccccc2c1CCN(Cc1ccc(Cl)cc1)C(=O)c1cnn([C@H]2CC[C@H](C(=O)O)CC2)c1C(F)(F)F [Example 513, trans-4-(4-((4-chlorobenzyl)(2-(2-methyl-1H-indol-3-yl)ethyl)carbamoyl)-5-(trifluoromethyl)-1H-pyrazol-1-yl)cyclohexanecarboxylic acid]	33.1

Now from value to compound:

IC50 [nM]	Structure (SMILES)
38	C[C@@H]1C[C@H](n2ncc(C(=O)N(CC(=O)c3c(Cl)cncc3Cl)CC(C)(C)C)c2C(F)(F)F)CC[C@]1(C)C(=O)O [Example 862, (1S,3S,4R)-4-(4-((2-(3,5-dichloro-4-pyridinyl)-2-oxoethyl)(2,2-dimethylpropyl)carbamoyl)-5-(trifluoromethyl)-1H-pyrazol-1-yl)-1,2-dimethylcyclohexanecarboxylic acid]
2.45	Cc1cc(Cl)c(C(=O)CN(CCC(C)C)C(=O)c2cnn([C@H]3CC[C@](C)(C(=O)O)CC3)c2C(F)(F)F)c(Cl)c1 [Example 704, trans-4-(4-((2-(2,6-dichloro-4-methylphenyl)-2-oxoethyl)(3-methylbutyl)carbamoyl)-5-(trifluoromethyl)-1H-pyrazol-1-yl)-1-methylcyclohexanecarboxylic acid]
13.8	CC1(C)CC[C@@H](CN(CC(=O)c2c(Cl)cccc2Cl)C(=O)c2cnn([C@H]3CC[C@](C)(C(=O)O)CC3)c2C(F)(F)F)O1 [Example 838, trans-4-(4-((2-(2,6-dichlorophenyl)-2-oxoethyl)(((2S)-5,5-dimethyltetrahydro-2-furanyl)methyl)carbamoyl)-5-(trifluoromethyl)-1H-pyrazol-1-yl)-1-methylcyclohexanecarboxylic acid]
575	CC(C)(C)CN(CC(=O)c1c(Cl)cncc1Cl)C(=O)c1cnn([C@H]2CC[C@@](C)(C(=O)O)C[C@@H]2F)c1C(F)(F)F [Example 870, (1R,3S,4S)-4-(4-((2-(3,5-dichloro-4-pyridinyl)-2-oxoethyl)(2,2-dimethylpropyl)carbamoyl)-5-(trifluoromethyl)-1H-pyrazol-1-yl)-3-fluoro-1-methylcyclohexanecarboxylic acid]
8.51	Cc1cc(Cl)c(C(=O)CN(CC2CCCCC2)C(=O)c2cnn([C@H]3CC[C@](C)(C(=O)O)CC3)c2C(F)(F)F)c(Cl)n1 [Example 801, trans-4-(4-((cyclohexylmethyl)(2-(2,4-dichloro-6-methyl-3-pyridinyl)-2-oxoethyl)carbamoyl)-5-(trifluoromethyl)-1H-pyrazol-1-yl)-1-methylcyclohexanecarboxylic acid]
4.47	C[C@@H]1C[C@@H](n2ncc(C(=O)N(CC(=O)c3c(Cl)cncc3Cl)[C@H]3CCC34CCC4)c2C(F)(F)F)CC[C@@H]1C(=O)O [Example 816, (1S,2R,4S)-4-(4-((2-(3,5-dichloro-4-pyridinyl)-2-oxoethyl)((1S)-spiro[3.3]hept-1-yl)carbamoyl)-5-(trifluoromethyl)-1H-pyrazol-1-yl)-2-methylcyclohexanecarboxylic acid]
12.9	C[C@]1(C(=O)O)CC[C@H](n2ncc(C(=O)N(CC(=O)c3c(Cl)cncc3Cl)CC3(F)CC4(CC4)C3)c2C(F)(F)F)CC1 [Example 712, trans-4-(4-((2-(3,5-dichloro-4-pyridinyl)-2-oxoethyl)((5-fluorospiro[2.3]hex-5-yl)methyl)carbamoyl)-5-(trifluoromethyl)-1H-pyrazol-1-yl)-1-methylcyclohexanecarboxylic acid]
4.57	CC(C)(C)CN(CC(=O)c1c(Cl)cncc1Cl)C(=O)c1cnn([C@H]2CC[C@](C)(C(=O)O)C[C@H]2F)c1C(F)(F)F [Example 868, (1S,3R,4S)-4-(4-((2-(3,5-dichloro-4-pyridinyl)-2-oxoethyl)(2,2-dimethylpropyl)carbamoyl)-5-(trifluoromethyl)-1H-pyrazol-1-yl)-3-fluoro-1-methylcyclohexanecarboxylic acid]
7.76	C[C@@H]1C[C@H](n2ncc(C(=O)N(CC(=O)c3c(Cl)cncc3Cl)CC(C)(C)C)c2C(F)(F)F)CC[C@@]1(C)C(=O)O [Example 874, (1R,2R,4R)-4-(4-((2-(3,5-dichloro-4-pyridinyl)-2-oxoethyl)(2,2-dimethylpropyl)carbamoyl)-5-(trifluoromethyl)-1H-pyrazol-1-yl)-1,2-dimethylcyclohexanecarboxylic acid]
5.01	CC(C)(C)CN(CC(=O)c1c(Cl)cncc1Cl)C(=O)c1cnn([C@@H]2CC[C@]3(C(=O)O)CCC[C@@H]3C2)c1C(F)(F)F [Example 871]
